Test results from patent US6610675B1 (priority 1980, dated 2003).

How the values were obtained:
Assay type in all cases: in vivo, rat
[1] = system: blank cotton pellet granuloma; assay: Blank cotton pellet granuloma assay (intravenous administration); details: 3 days
Description: A further test was undertaken to determine the thymolytic activity of a representative species of the invention as compared to betamethasone 17-valerate. In this test, the drugs were administered intravenously to rats, while using a blank cotton pellet granuloma assay. Male Sprague-Dawley rats, each weighing about 185 grams (166-196 grams), were used. Two cotton pellets, each weighing 30 mg and containing no test compounds, were sterilized and implanted sub-cutaneously into the back of each test animal. This day was considered day 0 of implantation. Test compounds suspended in 0.8% polysorbate 80 were administered intravenously once daily for 3 consecutive days beginning with day 1. On day 5, the animals were sacrificed and the two pellets, with their respective granulomas, were removed, dried overnight in an oven at 50° C. and weighed (dry granuloma weight). The thymi and final body weights were also recorded.
In the foregoing tests, there was determined the deactivation of the representative species of the present soft steroids administered intravenously to rats. […] The test compounds were administered intravenously to rats to check the test compounds also for systemic anti-inflammatory activity as compared to betamethasone 17-valerate. The test compounds were found lower in the inhibition of granulation tissue formation and also in the thymus involution activity than betamethasone 17-valerate. From the results of the tests, it is presumed that the compounds which will not be readily subjected to metabolism (deactivation) have a systemic anti-inflammatory activity, as is the case with betamethasone 17-valerate.

[2] = system: granulation tissue formation caused by implantation of cotton pellets; assay: Granuloma formation test (local cotton pellet granuloma assay)
Description: The test compound was dissolved in acetone and aliquots of varying concentrations were injected into cotton pellets. The pellets were dried and then one pellet was implanted beneath the skin of each test rat. Six days later, the animals were sacrificed and the granulation tissue (granuloma) which formed in and around the implanted pellet was removed, dried and weighed. In addition, the thymi and adrenals were removed and weighed.

[3] = system: ear swelling induced by croton oil; assay: Ear edema test; details: 1 mg/kg topical
Description: The test animals were Sprague/Dawley rats weighing approximately 150 grams each. In treatment groups, selected amounts of the test compound were dissolved in acetone containing 5% croton oil and 50 microliters of the solution were applied to the inner surface of the right ear of the rats. A control group was identically treated with vehicle only, i.e. 5% croton oil in acetone. Six hours after croton oil challenge, a constant region of each ear was removed by dissection under anesthesia. Then, 48 hours after steroid treatment, the animals were sacrificed and the thymi and adrenals were removed and weighed. The test results showing the inhibitory effect of topically applied steroids on the ear swelling induced by croton oil are summarized in Table II below.

thymus weight in rats = assay: Thymus inhibition testing (subcutaneous administration); details: for Body weight gain / Thymus / Thymus Inhibition: Table VII, three days
How it was run: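 Male Sprague-Dawley rats were dosed systemically. On the fifth day, 48 hours after the last treatment, animals were sacrificed and thymus weights recorded.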

[4] = Table X, betamethasone 17-valerate = 1

What does the source list for CCCCC(=O)O[C@]1(C(=O)CO)[C@@H](C)C[C@H]2[C@@H]3CCC4=CC(=O)C=C[C@]4(C)[C@@]3(F)[C@@H](O)C[C@@]21C [Betamethasone 17-valerate, reference compound]?
Body wt. gain ([1]; 0.1 mg/kg/day i.v.): 14.4 ± 1.6 g; Dry granuloma wt. ([1]; 0.1 mg/kg/day i.v.): 49.3 ± 3.9 mg; Dry granuloma wt. Inhibition ([1]; 0.1 mg/kg/day i.v.): 21.4%; Thymus wt. ([1]; 0.1 mg/kg/day i.v.): 305 ± 14 mg; Thymus wt. Decrease ([1]; 0.1 mg/kg/day i.v.): 27.7%; Body wt. gain ([1]; 0.3 mg/kg/day i.v.): 12.2 ± 1.1 g; Dry granuloma wt. ([1]; 0.3 mg/kg/day i.v.): 44.4 ± 2.8 mg; Dry granuloma wt. Inhibition ([1]; 0.3 mg/kg/day i.v.): 29.2%; Thymus wt. ([1]; 0.3 mg/kg/day i.v.): 288 ± 27 mg; Thymus wt. Decrease ([1]; 0.3 mg/kg/day i.v.): 31.8%; Body wt. gain ([1]; 1 mg/kg/day i.v.): 12.9 ± 1.1 g; Dry granuloma wt. ([1]; 1 mg/kg/day i.v.): 46.1 ± 4.3 mg; Dry granuloma wt. Inhibition ([1]; 1 mg/kg/day i.v.): 26.5%; Thymus wt. ([1]; 1 mg/kg/day i.v.): 233 ± 15 mg; Thymus wt. Decrease ([1]; 1 mg/kg/day i.v.): 44.8%; Body wt. gain ([1]; 3 mg/kg/day i.v.): 13.0 ± 2.5 g; Dry granuloma wt. ([1]; 3 mg/kg/day i.v.): 47.3 ± 2.7 mg; Dry granuloma wt. Inhibition ([1]; 3 mg/kg/day i.v.): 24.6%; Thymus wt. ([1]; 3 mg/kg/day i.v.): 167 ± 22 mg; Thymus wt. Decrease ([1]; 3 mg/kg/day i.v.): 60.4%; Body wt. gain ([2]; Table III, 1 mg/pellet): 16.6 ± 1.9 g; Granulation tissue Dry wt. ([2]; Table III, 1 mg/pellet): 35.4 ± 7.3 mg/100 g body wt.; Granulation tissue Inhibition ([2]; Table III, 1 mg/pellet): 19.0%; Relative organ weight Adrenals ([2]; Table III, 1 mg/pellet): 15.5 ± 1.3 mg/100 g body wt.; Relative organ weight Adrenals (Decrease %) ([2]; Table III, 1 mg/pellet): (34.6) %; Relative organ weight Thymus ([2]; Table III, 1 mg/pellet): 47 ± 2 mg/100 g body wt.; Relative organ weight Thymus (Decrease %) ([2]; Table III, 1 mg/pellet): (85.6) %; Body wt. gain ([2]; Table III, 3 mg/pellet): 14.9 ± 1.7 g; Granulation tissue Dry wt. ([2]; Table III, 3 mg/pellet): 31.6 ± 2.1 mg/100 g body wt.; Granulation tissue Inhibition ([2]; Table III, 3 mg/pellet): 27.7%; Relative organ weight Adrenals ([2]; Table III, 3 mg/pellet): 13.6 ± 0.9 mg/100 g body wt.; Relative organ weight Adrenals (Decrease %) ([2]; Table III, 3 mg/pellet): (42.6) %; Relative organ weight Thymus ([2]; Table III, 3 mg/pellet): 38 ± 3 mg/100 g body wt.; Relative organ weight Thymus (Decrease %) ([2]; Table III, 3 mg/pellet): (88.3) %; Body wt. gain ([2]; Table III, 10 mg/pellet): 17.0 ± 2.1 g; Granulation tissue Dry wt. ([2]; Table III, 10 mg/pellet): 40.7 ± 2.6 mg/100 g body wt.; Granulation tissue Inhibition ([2]; Table III, 10 mg/pellet): 6.9%; Relative organ weight Adrenals ([2]; Table III, 10 mg/pellet): 12.6 ± 0.9 mg/100 g body wt.; Relative organ weight Adrenals (Decrease %) ([2]; Table III, 10 mg/pellet): (46.8) %; Relative organ weight Thymus ([2]; Table III, 10 mg/pellet): 43 ± 4 mg/100 g body wt.; Relative organ weight Thymus (Decrease %) ([2]; Table III, 10 mg/pellet): (86.8) %; Body wt. gain ([2]; Table IV, 100 μg/pellet): 24.9 ± 1.9 g; Granulation tissue Dry wt. ([2]; Table IV, 100 μg/pellet): 41.1 ± 2.7 mg; Granulation tissue Dry wt. Inhibition ([2]; Table IV, 100 μg/pellet): 49.4%; Granulation tissue Wet wt. ([2]; Table IV, 100 μg/pellet): 400 ± 19 mg; Granulation tissue Wet wt. Inhibition ([2]; Table IV, 100 μg/pellet): 29.3%; Thymus wt. ([2]; Table IV, 100 μg/pellet): 364 ± 24 mg; Thymus wt. (Decrease %) ([2]; Table IV, 100 μg/pellet): (18.2) %; Body wt. gain ([2]; Table IV, 300 μg/pellet): 22.3 ± 1.2 g; Granulation tissue Dry wt. ([2]; Table IV, 300 μg/pellet): 33.3 ± 3.6 mg; Granulation tissue Dry wt. Inhibition ([2]; Table IV, 300 μg/pellet): 59.0%; Granulation tissue Wet wt. ([2]; Table IV, 300 μg/pellet): 347 ± 15 mg; Granulation tissue Wet wt. Inhibition ([2]; Table IV, 300 μg/pellet): 38.7%; Thymus wt. ([2]; Table IV, 300 μg/pellet): 264 ± 29 mg; Thymus wt. (Decrease %) ([2]; Table IV, 300 μg/pellet): (40.7) %; Body wt. gain ([2]; Table IV, 1000 μg/pellet): 5.3 ± 1.0 g; Granulation tissue Dry wt. ([2]; Table IV, 1000 μg/pellet): 38.1 ± 4.8 mg; Granulation tissue Dry wt. Inhibition ([2]; Table IV, 1000 μg/pellet): 53.1%; Granulation tissue Wet wt. ([2]; Table IV, 1000 μg/pellet): 363 ± 28 mg; Granulation tissue Wet wt. Inhibition ([2]; Table IV, 1000 μg/pellet): 35.9%; Thymus wt. ([2]; Table IV, 1000 μg/pellet): 77 ± 5 mg; Thymus wt. (Decrease %) ([2]; Table IV, 1000 μg/pellet): (82.7) %; Body wt. gain ([2]; Table IV, 3000 μg/pellet): 6.6 ± 1.4 g; Granulation tissue Dry wt. ([2]; Table IV, 3000 μg/pellet): 43.0 ± 4.1 mg; Granulation tissue Dry wt. Inhibition ([2]; Table IV, 3000 μg/pellet): 47.0%; Granulation tissue Wet wt. ([2]; Table IV, 3000 μg/pellet): 374 ± 15 mg; Granulation tissue Wet wt. Inhibition ([2]; Table IV, 3000 μg/pellet): 33.9%; Thymus wt. ([2]; Table IV, 3000 μg/pellet): 63 ± 3 mg; Thymus wt. (Decrease %) ([2]; Table IV, 3000 μg/pellet): (85.8) %; Body wt. gain ([2]; Table V-a, 10 μg/pellet): 31.8 ± 1.6 g; Granulation tissue Dry wt. ([2]; Table V-a, 10 μg/pellet): 38.5 ± 6.2 mg; Granulation tissue Dry wt. Inhibition ([2]; Table V-a, 10 μg/pellet): 51.9%; Granulation tissue Wet wt. ([2]; Table V-a, 10 μg/pellet): 375 ± 19 mg; Granulation tissue Wet wt. Inhibition ([2]; Table V-a, 10 μg/pellet): 28.6%; Thymus wt. ([2]; Table V-a, 10 μg/pellet): 479 ± 25 mg; Thymus wt. (Decrease %) ([2]; Table V-a, 10 μg/pellet): (3.2) %; Body wt. gain ([2]; Table V-a, 30 μg/pellet): 30.8 ± 3.0 g; Granulation tissue Dry wt. ([2]; Table V-a, 30 μg/pellet): 46.2 ± 7.4 mg; Granulation tissue Dry wt. Inhibition ([2]; Table V-a, 30 μg/pellet): 42.3%; Granulation tissue Wet wt. ([2]; Table V-a, 30 μg/pellet): 412 ± 42 mg; Granulation tissue Wet wt. Inhibition ([2]; Table V-a, 30 μg/pellet): 21.5%; Thymus wt. ([2]; Table V-a, 30 μg/pellet): 484 ± 23 mg; Thymus wt. (Decrease %) ([2]; Table V-a, 30 μg/pellet): (2.2) %; Body wt. gain ([2]; Table V-a, 100 μg/pellet): 25.7 ± 1.2 g; Granulation tissue Dry wt. ([2]; Table V-a, 100 μg/pellet): 41.0 ± 4.2 mg; Granulation tissue Dry wt. Inhibition ([2]; Table V-a, 100 μg/pellet): 48.8%; Granulation tissue Wet wt. ([2]; Table V-a, 100 μg/pellet): 419 ± 20 mg; Granulation tissue Wet wt. Inhibition ([2]; Table V-a, 100 μg/pellet): 20.2%; Thymus wt. ([2]; Table V-a, 100 μg/pellet): 378 ± 30 mg; Thymus wt. (Decrease %) ([2]; Table V-a, 100 μg/pellet): (23.6) %; ED50 ([2]; Table XII, anti-inflammatory effect in cotton pellet granuloma): 100 μg/pellet; Ear Weight, % Increase ([3]; 6 hr): 10.9 ± 6.3 %; Ear Weight, % Inhibition ([3]; 6 hr): 82.2%; Ear Weight, Inflamed Ear ([3]; 6 hr): 55.4 ± 1.2 mg; Ear Weight, Untreated Ear ([3]; 6 hr): 50.4 ± 2.0 mg; Relative organ weight Adrenals ([3]; 48 hours): 18.9 ± 1.9 mg/100 g body wt.; Relative organ weight Thymus ([3]; 48 hours): 267 ± 19 mg/100 g body wt.; Body weight gain (thymus weight in rats; 0.1 mg/kg/day s.c.): 15.5 ± 0.9 g; Thymus (thymus weight in rats; 0.1 mg/kg/day s.c.): 362 ± 16 mg; Thymus Inhibition (thymus weight in rats; 0.1 mg/kg/day s.c.): 23.1%; Body weight gain (thymus weight in rats; 0.3 mg/kg/day s.c.): 12.4 ± 0.9 g; Thymus (thymus weight in rats; 0.3 mg/kg/day s.c.): 276 ± 11 mg; Thymus Inhibition (thymus weight in rats; 0.3 mg/kg/day s.c.): 41.4%; Body weight gain (thymus weight in rats; 1 mg/kg/day s.c.): 13.0 ± 1.1 g; Thymus (thymus weight in rats; 1 mg/kg/day s.c.): 200 ± 14 mg; Thymus Inhibition (thymus weight in rats; 1 mg/kg/day s.c.): 57.5%; Body weight gain (thymus weight in rats; 3 mg/kg/day s.c.): 9.9 ± 1.3 g; Thymus (thymus weight in rats; 3 mg/kg/day s.c.): 119 ± 7 mg; Thymus Inhibition (thymus weight in rats; 3 mg/kg/day s.c.): 74.7%; Relative Potency (TED40) (thymus weight in rats; [4]): 1; Relative Potency (TED50) (thymus weight in rats; [4]): 1; TED40 (thymus weight in rats; Table X, dose required to achieve 40% inhibition of thymi weight, subcutaneous): 0.30 mg; TED50 (thymus weight in rats; Table X, dose required to achieve 50% inhibition of thymi weight, subcutaneous): 0.58 mg; Relative Potency (TED40) (thymus weight in rats; Table XII, hydrocortisone 17-butyrate = 1): 4; TED40 (thymus weight in rats; Table XII, thymus inhibition effect, subcutaneously): 0.3 mg/kg
